# Legend:
# [1] = biological target: Ribosomal protein S6 kinase alpha-1 (Homo sapiens) (UniProt Q15418); conditions: Compound concentration 1000.0 nM
# [2] = test system: Leucine-rich repeat serine/threonine-protein kinase 2 (Homo sapiens), Q5S007 [G2019S]; conditions: Compound concentration 1000.0 nM
# [3] = biological target: Serine/threonine-protein kinase PLK2 (Homo sapiens) (UniProt Q9NYY3); conditions: Compound concentration 1000.0 nM
# [4] = biological target: Vascular endothelial growth factor receptor 2 (Homo sapiens) (UniProt P35968); conditions: Compound concentration 1000.0 nM
# [5] = biological target: Serine/threonine-protein kinase MAK (Homo sapiens) (UniProt P20794); conditions: Compound concentration 1000.0 nM
# [6] = biological target: MAP/microtubule affinity-regulating kinase 3 (Homo sapiens) (UniProt P27448); conditions: Compound concentration 1000.0 nM
# [7] = biological target: D(2) dopamine receptor (Homo sapiens) (UniProt P14416); conditions: Compound concentration 10.0 uM
# [8] = biological target: Mitogen-activated protein kinase kinase kinase kinase 2 (Homo sapiens) (UniProt Q12851); conditions: Compound concentration 1000.0 nM
# [9] = test system: Phosphatidylinositol 4,5-bisphosphate 3-kinase catalytic subunit alpha isoform (Homo sapiens), P42336 [M1043I]; conditions: Compound concentration 1000.0 nM
# [10] = biological target: Mitogen-activated protein kinase 1 (Homo sapiens) (UniProt P28482); conditions: Compound concentration 1000.0 nM
# Chain of Mitogen-activated protein kinase 1 (Homo sapiens) (P28482 whole entry): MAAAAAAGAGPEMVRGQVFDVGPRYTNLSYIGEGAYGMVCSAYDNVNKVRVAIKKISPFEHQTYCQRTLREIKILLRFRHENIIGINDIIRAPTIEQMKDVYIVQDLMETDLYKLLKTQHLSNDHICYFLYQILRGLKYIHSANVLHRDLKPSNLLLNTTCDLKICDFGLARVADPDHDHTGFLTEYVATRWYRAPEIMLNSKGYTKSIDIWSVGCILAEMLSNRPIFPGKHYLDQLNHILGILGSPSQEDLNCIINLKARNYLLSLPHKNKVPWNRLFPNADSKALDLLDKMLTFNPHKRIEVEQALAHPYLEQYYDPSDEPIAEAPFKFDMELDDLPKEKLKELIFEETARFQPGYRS
# [11] = biological target: Serine/threonine-protein kinase WNK4 (Homo sapiens) (UniProt Q96J92); conditions: Compound concentration 1000.0 nM
# [12] = biological target: Ribosomal protein S6 kinase alpha-5 (Homo sapiens) (UniProt O75582); conditions: Compound concentration 1000.0 nM
# Chain of Ribosomal protein S6 kinase alpha-5 (Homo sapiens) (O75582 whole entry, looked up): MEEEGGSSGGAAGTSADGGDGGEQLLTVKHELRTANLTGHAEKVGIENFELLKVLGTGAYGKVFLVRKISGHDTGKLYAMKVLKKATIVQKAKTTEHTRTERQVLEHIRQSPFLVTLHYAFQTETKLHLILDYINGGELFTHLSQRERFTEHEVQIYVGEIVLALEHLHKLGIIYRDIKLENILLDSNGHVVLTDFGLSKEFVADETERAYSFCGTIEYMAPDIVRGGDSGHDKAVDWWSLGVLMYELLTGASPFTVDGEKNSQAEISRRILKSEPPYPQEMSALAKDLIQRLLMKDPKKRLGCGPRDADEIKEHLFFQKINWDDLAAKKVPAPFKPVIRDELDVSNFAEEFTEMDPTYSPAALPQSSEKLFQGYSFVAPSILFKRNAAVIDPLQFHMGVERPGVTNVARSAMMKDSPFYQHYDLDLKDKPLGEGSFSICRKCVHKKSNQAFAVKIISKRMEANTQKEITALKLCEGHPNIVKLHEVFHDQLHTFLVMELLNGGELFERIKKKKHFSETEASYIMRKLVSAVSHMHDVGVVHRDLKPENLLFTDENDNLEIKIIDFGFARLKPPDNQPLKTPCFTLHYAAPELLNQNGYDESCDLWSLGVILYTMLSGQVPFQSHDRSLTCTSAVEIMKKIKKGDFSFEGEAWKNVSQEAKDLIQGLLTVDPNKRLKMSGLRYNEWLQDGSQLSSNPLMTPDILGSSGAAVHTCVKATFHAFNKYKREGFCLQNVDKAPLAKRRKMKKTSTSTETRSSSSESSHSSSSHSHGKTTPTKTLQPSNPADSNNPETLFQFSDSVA
# [13] = biological target: Phosphatidylinositol 4-kinase beta (Homo sapiens) (UniProt Q9UBF8); conditions: Compound concentration 1000.0 nM
# [14] = biological target: Serine/threonine-protein kinase Nek10 (Homo sapiens) (UniProt Q6ZWH5); conditions: Compound concentration 1000.0 nM
# [15] = biological target: Ephrin type-A receptor 8 (Homo sapiens) (UniProt P29322); conditions: Compound concentration 1000.0 nM
# Chain of Ephrin type-A receptor 8 (Homo sapiens) (P29322 whole entry): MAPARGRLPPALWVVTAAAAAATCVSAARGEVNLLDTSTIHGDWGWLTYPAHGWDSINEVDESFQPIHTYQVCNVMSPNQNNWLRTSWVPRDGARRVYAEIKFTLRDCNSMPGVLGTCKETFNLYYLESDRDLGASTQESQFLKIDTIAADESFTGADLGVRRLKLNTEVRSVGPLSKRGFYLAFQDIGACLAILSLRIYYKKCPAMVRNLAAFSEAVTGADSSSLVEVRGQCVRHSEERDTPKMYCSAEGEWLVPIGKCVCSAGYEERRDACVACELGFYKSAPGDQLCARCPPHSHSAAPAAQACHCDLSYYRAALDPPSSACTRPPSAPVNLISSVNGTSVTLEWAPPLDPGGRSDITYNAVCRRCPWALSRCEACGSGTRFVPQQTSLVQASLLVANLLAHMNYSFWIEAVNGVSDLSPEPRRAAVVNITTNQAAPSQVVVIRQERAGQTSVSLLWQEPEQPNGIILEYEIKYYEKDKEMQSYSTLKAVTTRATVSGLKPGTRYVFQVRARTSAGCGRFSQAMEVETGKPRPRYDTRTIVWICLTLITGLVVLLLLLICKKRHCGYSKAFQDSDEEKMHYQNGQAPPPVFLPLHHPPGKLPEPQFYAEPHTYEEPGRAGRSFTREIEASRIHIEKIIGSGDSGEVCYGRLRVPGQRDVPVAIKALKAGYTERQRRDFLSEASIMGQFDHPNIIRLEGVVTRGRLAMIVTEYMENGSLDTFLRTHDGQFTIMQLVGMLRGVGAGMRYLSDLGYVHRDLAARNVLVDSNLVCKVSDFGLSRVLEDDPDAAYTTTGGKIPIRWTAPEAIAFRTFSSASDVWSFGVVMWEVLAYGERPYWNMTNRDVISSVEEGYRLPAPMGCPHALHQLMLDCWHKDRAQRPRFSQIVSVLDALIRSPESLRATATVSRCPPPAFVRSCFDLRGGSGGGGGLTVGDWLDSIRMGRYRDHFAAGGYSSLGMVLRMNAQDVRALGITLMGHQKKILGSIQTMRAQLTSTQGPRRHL
# [16] = biological target: Cyclin-dependent kinase-like 3 (Homo sapiens) (UniProt Q8IVW4); conditions: Compound concentration 1000.0 nM
# [17] = biological target: cGMP-dependent protein kinase 2 (Homo sapiens) (UniProt Q13237); conditions: Compound concentration 1000.0 nM
# [18] = biological target: 5-hydroxytryptamine receptor 2C (Homo sapiens) (UniProt P28335); conditions: Compound concentration 10.0 uM
# Chain of 5-hydroxytryptamine receptor 2C (Homo sapiens) (P28335 whole entry): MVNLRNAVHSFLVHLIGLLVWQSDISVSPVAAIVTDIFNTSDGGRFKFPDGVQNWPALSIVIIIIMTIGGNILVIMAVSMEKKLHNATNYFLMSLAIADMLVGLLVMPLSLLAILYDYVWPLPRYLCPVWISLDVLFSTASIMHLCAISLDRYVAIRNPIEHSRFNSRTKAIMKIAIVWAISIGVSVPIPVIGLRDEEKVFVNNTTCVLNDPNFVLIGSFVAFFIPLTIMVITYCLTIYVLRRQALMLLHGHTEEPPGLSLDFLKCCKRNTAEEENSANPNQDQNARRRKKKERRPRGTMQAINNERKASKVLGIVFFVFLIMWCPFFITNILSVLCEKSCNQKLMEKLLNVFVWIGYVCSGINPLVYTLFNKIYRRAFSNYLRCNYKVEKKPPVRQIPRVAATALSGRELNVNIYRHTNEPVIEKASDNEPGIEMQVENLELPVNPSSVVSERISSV
# [19] = biological target: Dual specificity protein kinase CLK1 (Homo sapiens) (UniProt P49759); conditions: Compound concentration 1000.0 nM
# [20] = test system: Phosphatidylinositol 4,5-bisphosphate 3-kinase catalytic subunit alpha isoform (Homo sapiens), P42336 [H1047Y]; conditions: Compound concentration 1000.0 nM
# [21] = test system: eIF-2-alpha kinase GCN2 (Homo sapiens), Q9P2K8 [S808G]; conditions: Compound concentration 1000.0 nM
# [22] = biological target: Cyclin-dependent kinase-like 5 (Homo sapiens) (UniProt O76039); conditions: Compound concentration 1000.0 nM
# [23] = biological target: Casein kinase I isoform alpha (Homo sapiens) (UniProt P48729); conditions: Compound concentration 1000.0 nM
# Chain of Casein kinase I isoform alpha (Homo sapiens) (P48729 2-337 limits assumed): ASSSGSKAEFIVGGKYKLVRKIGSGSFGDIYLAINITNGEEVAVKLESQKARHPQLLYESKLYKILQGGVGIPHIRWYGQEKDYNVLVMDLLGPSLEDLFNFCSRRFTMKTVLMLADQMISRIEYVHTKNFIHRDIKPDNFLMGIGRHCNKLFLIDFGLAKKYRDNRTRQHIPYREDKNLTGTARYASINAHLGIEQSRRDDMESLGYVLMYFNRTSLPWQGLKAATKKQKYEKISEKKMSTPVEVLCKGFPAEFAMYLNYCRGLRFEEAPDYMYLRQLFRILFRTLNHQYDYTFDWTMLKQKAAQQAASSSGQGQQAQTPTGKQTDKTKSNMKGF
# [24] = biological target: Serine/threonine-protein kinase 38-like (Homo sapiens) (UniProt Q9Y2H1); conditions: Compound concentration 1000.0 nM
# Chain of Serine/threonine-protein kinase 38-like (Homo sapiens) (Q9Y2H1 2-464 limits assumed): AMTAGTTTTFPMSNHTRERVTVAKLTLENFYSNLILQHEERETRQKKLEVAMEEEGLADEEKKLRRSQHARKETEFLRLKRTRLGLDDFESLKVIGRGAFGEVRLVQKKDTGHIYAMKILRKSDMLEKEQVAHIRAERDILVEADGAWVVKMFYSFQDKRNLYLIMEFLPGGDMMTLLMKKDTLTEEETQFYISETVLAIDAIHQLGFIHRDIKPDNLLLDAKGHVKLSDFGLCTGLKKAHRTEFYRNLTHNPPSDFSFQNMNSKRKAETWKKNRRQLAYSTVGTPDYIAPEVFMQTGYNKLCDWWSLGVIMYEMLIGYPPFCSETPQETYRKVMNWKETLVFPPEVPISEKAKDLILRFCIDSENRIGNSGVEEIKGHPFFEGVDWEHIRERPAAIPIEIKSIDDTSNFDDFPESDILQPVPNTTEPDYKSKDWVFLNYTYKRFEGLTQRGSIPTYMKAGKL
# [25] = biological target: Aurora kinase C (Homo sapiens) (UniProt Q9UQB9); conditions: Compound concentration 1000.0 nM
# [26] = biological target: Dual specificity mitogen-activated protein kinase kinase 3 (Homo sapiens) (UniProt P46734); conditions: Compound concentration 1000.0 nM
# [27] = biological target: NUAK family SNF1-like kinase 2 (Homo sapiens) (UniProt Q9H093); conditions: Compound concentration 1000.0 nM
# [28] = biological target: Phosphatidylinositol 4-phosphate 5-kinase type-1 gamma (Homo sapiens) (UniProt O60331); conditions: Compound concentration 1000.0 nM
# [29] = biological target: Tyrosine-protein kinase ITK/TSK (Homo sapiens) (UniProt Q08881); conditions: Compound concentration 1000.0 nM
# [30] = biological target: Homeodomain-interacting protein kinase 1 (Homo sapiens) (UniProt Q86Z02); conditions: Compound concentration 1000.0 nM
# [31] = test system: Proto-oncogene tyrosine-protein kinase receptor Ret (Homo sapiens), P07949 [V804M]; conditions: Compound concentration 1000.0 nM
# [32] = biological target: Phosphatidylinositol 4,5-bisphosphate 3-kinase catalytic subunit gamma isoform (Homo sapiens) (UniProt P48736); conditions: Compound concentration 1000.0 nM
# Chain of Phosphatidylinositol 4,5-bisphosphate 3-kinase catalytic subunit gamma isoform (Homo sapiens) (P48736 whole entry, looked up, canonical isoform): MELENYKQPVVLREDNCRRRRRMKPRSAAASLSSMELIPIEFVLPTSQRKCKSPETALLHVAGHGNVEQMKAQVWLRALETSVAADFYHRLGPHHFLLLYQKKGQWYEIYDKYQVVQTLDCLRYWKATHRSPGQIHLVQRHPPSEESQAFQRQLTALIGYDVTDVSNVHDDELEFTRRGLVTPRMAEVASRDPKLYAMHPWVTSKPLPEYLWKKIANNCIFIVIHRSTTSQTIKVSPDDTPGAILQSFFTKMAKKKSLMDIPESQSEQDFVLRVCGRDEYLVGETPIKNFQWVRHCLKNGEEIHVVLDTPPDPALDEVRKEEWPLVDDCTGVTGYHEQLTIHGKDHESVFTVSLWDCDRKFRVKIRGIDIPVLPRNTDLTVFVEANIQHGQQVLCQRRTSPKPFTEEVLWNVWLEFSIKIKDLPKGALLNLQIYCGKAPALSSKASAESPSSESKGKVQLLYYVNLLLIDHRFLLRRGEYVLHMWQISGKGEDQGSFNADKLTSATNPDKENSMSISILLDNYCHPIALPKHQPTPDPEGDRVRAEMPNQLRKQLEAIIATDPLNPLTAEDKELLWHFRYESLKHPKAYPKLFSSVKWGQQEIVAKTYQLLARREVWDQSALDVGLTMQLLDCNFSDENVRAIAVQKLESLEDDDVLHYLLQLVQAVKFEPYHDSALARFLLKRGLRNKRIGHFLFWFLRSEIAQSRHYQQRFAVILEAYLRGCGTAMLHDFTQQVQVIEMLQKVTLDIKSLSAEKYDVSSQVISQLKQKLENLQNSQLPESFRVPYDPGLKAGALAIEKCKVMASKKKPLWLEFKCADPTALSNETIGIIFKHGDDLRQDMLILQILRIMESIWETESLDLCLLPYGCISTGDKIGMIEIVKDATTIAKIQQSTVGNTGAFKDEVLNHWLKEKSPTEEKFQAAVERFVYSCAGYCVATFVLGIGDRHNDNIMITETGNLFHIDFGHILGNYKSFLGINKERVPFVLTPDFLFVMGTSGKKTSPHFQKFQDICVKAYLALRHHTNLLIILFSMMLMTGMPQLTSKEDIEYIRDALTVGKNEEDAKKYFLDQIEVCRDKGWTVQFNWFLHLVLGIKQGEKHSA
# [33] = biological target: Serine/threonine-protein kinase D3 (Homo sapiens) (UniProt O94806); conditions: Compound concentration 1000.0 nM
# [34] = biological target: Receptor-type tyrosine-protein kinase FLT3 (Homo sapiens) (UniProt P36888); conditions: Compound concentration 1000.0 nM
# [35] = biological target: Ribosomal protein S6 kinase alpha-2 (Homo sapiens) (UniProt Q15349); conditions: Compound concentration 1000.0 nM
# [36] = biological target: Protein kinase C theta type (Homo sapiens) (UniProt Q04759); conditions: Compound concentration 1000.0 nM
# [37] = test system: Phosphatidylinositol 4,5-bisphosphate 3-kinase catalytic subunit alpha isoform (Homo sapiens), P42336 [I800L]; conditions: Compound concentration 1000.0 nM
# [38] = test system: Receptor-type tyrosine-protein kinase FLT3 (Homo sapiens), P36888 [K663Q]; conditions: Compound concentration 1000.0 nM
# [39] = biological target: Dual specificity mitogen-activated protein kinase kinase 6 (Homo sapiens) (UniProt P52564); conditions: Compound concentration 1000.0 nM
# [40] = biological target: Cyclin-dependent kinase 9 (Homo sapiens) (UniProt P50750); conditions: Compound concentration 1000.0 nM
# Chain of Cyclin-dependent kinase 9 (Homo sapiens) (P50750 whole entry): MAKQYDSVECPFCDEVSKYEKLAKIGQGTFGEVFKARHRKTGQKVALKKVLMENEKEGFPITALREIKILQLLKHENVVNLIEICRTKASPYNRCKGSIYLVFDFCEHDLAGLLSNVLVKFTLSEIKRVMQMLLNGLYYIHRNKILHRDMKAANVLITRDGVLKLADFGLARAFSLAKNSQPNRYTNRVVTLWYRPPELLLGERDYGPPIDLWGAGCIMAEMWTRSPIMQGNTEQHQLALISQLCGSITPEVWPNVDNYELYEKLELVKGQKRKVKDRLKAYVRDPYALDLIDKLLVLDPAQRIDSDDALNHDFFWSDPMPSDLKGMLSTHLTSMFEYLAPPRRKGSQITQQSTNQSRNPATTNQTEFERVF
# [41] = test system: Epidermal growth factor receptor (Homo sapiens), P00533 [L858R,T790M]; conditions: Compound concentration 1000.0 nM
# [42] = biological target: Focal adhesion kinase 1 (Homo sapiens) (UniProt Q05397); conditions: Compound concentration 1000.0 nM
# [43] = biological target: STE20-like serine/threonine-protein kinase (Homo sapiens) (UniProt Q9H2G2); conditions: Compound concentration 1000.0 nM
# [44] = biological target: Dual specificity protein kinase CLK3 (Homo sapiens) (UniProt P49761); conditions: Compound concentration 1000.0 nM
# [45] = test system: Tyrosine-protein kinase ABL1 (Homo sapiens), P00519 [H396P]; conditions: Compound concentration 1000.0 nM
smiles,measurement,setting,value
O=C(O)[C@@H]1[C@@H](Cn2nnc3ccccc3c2=O)CC[C@H]1C(=O)c1ccc(OCCC2CCOCC2)cc1 [BAY-694],residual activity,[1],100%
same,residual activity,[2],100%
same,residual activity,[3],92%
same,residual activity,[4],78%
same,residual activity,[5],78%
same,residual activity,[6],100%
same,inhibition,[7],-5.06%
same,residual activity,[8],97%
same,residual activity,[9],100%
same,residual activity,[10],93%
same,residual activity,[11],75%
same,residual activity,[12],100%
same,residual activity,[13],83%
same,residual activity,[14],88%
same,residual activity,[15],99%
same,residual activity,[16],98%
same,residual activity,[17],100%
same,inhibition,[18],21%
same,residual activity,[19],98%
same,residual activity,[20],94%
same,residual activity,[21],100%
same,residual activity,[22],96%
same,residual activity,[23],97%
same,residual activity,[24],100%
same,residual activity,[25],100%
same,residual activity,[26],92%
same,residual activity,[27],100%
same,residual activity,[28],100%
same,residual activity,[29],87%
same,residual activity,[30],91%
same,residual activity,[31],100%
same,residual activity,[32],100%
same,residual activity,[33],100%
same,residual activity,[34],100%
same,residual activity,[35],100%
same,residual activity,[36],85%
same,residual activity,[37],34%
same,residual activity,[38],100%
same,residual activity,[39],100%
same,residual activity,[40],100%
same,residual activity,[41],76%
same,residual activity,[42],100%
same,residual activity,[43],88%
same,residual activity,[44],91%
same,residual activity,[45],97%
O=C(O)[C@H]1[C@H](Cn2nnc3ccccc3c2=O)CC[C@@H]1C(=O)c1ccc(OCCC2CCOCC2)cc1 [BAY-7598],residual activity,[1],90%
same,residual activity,[2],100%
same,residual activity,[3],100%
same,residual activity,[4],88%
same,residual activity,[5],95%
same,residual activity,[6],100%
same,inhibition,[7],30.3%
same,residual activity,[8],100%
same,residual activity,[9],100%
same,residual activity,[10],100%
same,residual activity,[11],91%
same,residual activity,[12],100%
same,residual activity,[13],93%
same,residual activity,[14],69%
same,residual activity,[15],100%
same,residual activity,[16],87%
same,residual activity,[17],100%
same,inhibition,[18],22.4%
same,residual activity,[19],98%
same,residual activity,[20],88%
same,residual activity,[21],55%
same,residual activity,[22],85%
same,residual activity,[23],82%
same,residual activity,[24],96%
same,residual activity,[25],79%
same,residual activity,[26],90%
same,residual activity,[27],100%
same,residual activity,[28],100%
same,residual activity,[29],100%
same,residual activity,[30],100%
same,residual activity,[31],96%
same,residual activity,[32],90%
same,residual activity,[33],88%
same,residual activity,[34],99%
same,residual activity,[35],78%
same,residual activity,[36],80%
same,residual activity,[37],73%
same,residual activity,[38],100%
same,residual activity,[39],100%
same,residual activity,[40],72%
same,residual activity,[41],64%
same,residual activity,[42],89%
same,residual activity,[43],96%
same,residual activity,[44],100%
same,residual activity,[45],94%

# Source: ChEMBL document CHEMBL4507264, “Data for DCP probe BAY-7598” (2021)
